# Laboratory results: publication PMC5786472 (Cell, 2018)
# Where no end group is shown, it is not given here.
# Experiments:
# [1] = tested on: E. coli K-12 strain W3110; assay type: cell-based, Escherichia coli
# [2] = tested on: E. coli W3110, Acinetobacter baumannii (Ab 5075), Pseudomonas aeruginosa (PA14), NDM E. coli; details: 20 h
# [3] = tested on: E. coli conferring New-Delhi metallo-beta-lactamase (NDM) resistance; details: 10mM Tris (pH7.4) + 25mM NaCl, 20 hours, 37°C, at least 99.9% killing of inoculum; representative of three independent experiments
# [4] = tested on: E. coli; assay: SLAY screen of a defined library of five surface-displayed peptides; assay type: cell-based, Escherichia coli
compound,measurement,setting,value
CC(C)C[C@H](NC(=O)[C@H](CCCNC(=N)N)NC(=O)CNC(=O)CNC(=O)[C@@H](N)CCCNC(=N)N)C(=O)N[C@H]1CSSC[C@@H](C(=O)N[C@H](C(=O)NCC(=O)N[C@@H](CCCNC(=N)N)C(N)=O)C(C)C)NC(=O)[C@H](C(C)C)NC(=O)[C@@H]2CSSC[C@H](NC(=O)[C@H](Cc3ccc(O)cc3)NC1=O)C(=O)N[C@@H](CCCNC(=N)N)C(=O)N[C@@H](CCCNC(=N)N)C(=O)N[C@@H](CCCNC(=N)N)C(=O)N[C@@H](Cc1ccccc1)C(=O)N2 [Protegrin 1],effect of surface-displayed peptide on growth,[1],strong antimicrobial activity
RLVRILVSKRPVAIKPYFRL [Peptide P1],MBC over all bacteria tested,[2],less than 2 μM
LPLPSCSSHGGDADNTSQRN [Peptide P11],MBC NDM E. coli,[3],32 µM
DATPHAALFFTVKDHTAGDN [Peptide P15],MBC NDM E. coli,[3],64 µM
dermaseptin,effect of surface-displayed peptide on growth,[1],strong antimicrobial activity
YPYDVPDYAAYPYDVPDYAA [Peptide 2xHA],log2 fold,[4],−0.01
same,effect of surface-displayed peptide on growth,[1],grew similarly at all IPTG concentrations
